Measurements: ChEMBL document CHEMBL5360618, “PepScaf: Harnessing Machine Learning with In Vitro Selection toward De Novo Macrocyclic Peptides against IL-17C/IL-17RE Interaction” (J Med Chem, 2023)
Starred links: 1 amine or outer side, 2 acyl side, 3 side chain; linkers in the order of their positions; H or OH if unused. Positions of bridges follow the written chain, without caps; N, C: chain ends. Residues, ends and D or L forms follow the SMILES beside them. CO = O=C([*:1])[*:2]

target: T1, IL17-RE-IL-17C (Homo sapiens, UniProt Q8NFR9+Q9P0M4); test: Inhibition of IL-17C/IL-17RE interaction (unknown origin) incubated for 1.5 hrs by ELISA method; type: protein-complex assay
T1 sequence (Q9P0M4 whole entry): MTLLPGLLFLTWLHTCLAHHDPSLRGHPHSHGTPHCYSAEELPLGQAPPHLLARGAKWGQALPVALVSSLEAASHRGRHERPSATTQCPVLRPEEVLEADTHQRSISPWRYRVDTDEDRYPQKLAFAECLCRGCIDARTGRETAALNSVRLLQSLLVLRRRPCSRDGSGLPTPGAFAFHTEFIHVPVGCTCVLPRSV
T1 sequence (Q8NFR9 whole entry): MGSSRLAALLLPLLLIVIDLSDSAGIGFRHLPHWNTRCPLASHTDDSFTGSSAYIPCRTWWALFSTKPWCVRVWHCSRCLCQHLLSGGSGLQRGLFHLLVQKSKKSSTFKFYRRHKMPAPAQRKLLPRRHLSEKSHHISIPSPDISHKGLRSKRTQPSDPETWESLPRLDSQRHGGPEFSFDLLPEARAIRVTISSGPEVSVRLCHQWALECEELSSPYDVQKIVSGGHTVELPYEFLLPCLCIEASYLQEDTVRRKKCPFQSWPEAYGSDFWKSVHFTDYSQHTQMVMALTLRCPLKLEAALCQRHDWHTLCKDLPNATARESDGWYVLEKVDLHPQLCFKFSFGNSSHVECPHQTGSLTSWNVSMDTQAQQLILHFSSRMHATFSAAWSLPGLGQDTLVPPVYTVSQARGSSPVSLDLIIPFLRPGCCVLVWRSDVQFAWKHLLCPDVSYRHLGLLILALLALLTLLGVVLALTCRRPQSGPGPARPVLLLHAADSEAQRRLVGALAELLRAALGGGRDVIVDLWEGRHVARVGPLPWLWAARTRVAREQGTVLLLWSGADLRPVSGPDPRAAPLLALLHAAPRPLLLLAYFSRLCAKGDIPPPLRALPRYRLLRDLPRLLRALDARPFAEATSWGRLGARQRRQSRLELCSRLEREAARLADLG

SMILES | IC50 [µM]
CC(C)C[C@@H]1NC(=O)[C@H](Cc2ccc(O)cc2)NC(=O)[C@H](CC(=O)O)NC(=O)[C@H](CCCCN)NC(=O)[C@H](CC(C)C)NC(=O)[C@H](Cc2c[nH]c3ccccc23)NC(=O)[C@H](C)NC(=O)[C@H](CC(=O)O)NC(=O)[C@H](Cc2ccccc2)NC(=O)[C@H](Cc2c[nH]cn2)NC(=O)[C@H](Cc2ccc(O)cc2)NC(=O)CSC[C@@H](C(=O)NCC(N)=O)NC(=O)CNC1=O ({CH2CO}-YHFDAWLKDYLGCG-NH2; thioether N-13) | > 30
CC(C)C[C@@H]1NC(=O)[C@H](Cc2c[nH]c3ccccc23)NC(=O)[C@H](C)NC(=O)[C@H](CC(=O)O)NC(=O)[C@H](Cc2ccccc2)NC(=O)[C@H](Cc2c[nH]cn2)NC(=O)[C@H](Cc2ccc(O)cc2)NC(=O)CSC[C@@H](C(=O)NCC(N)=O)NC(=O)[C@H](CC(C)C)NC(=O)[C@H](CC(C)C)NC(=O)[C@H]([C@@H](C)O)NC(=O)[C@H](CO)NC1=O ({CH2CO}-YHFDAWLSTLLCG-NH2; thioether N-12) | > 30
CC(C)C[C@@H]1NC(=O)[C@H](Cc2c[nH]c3ccccc23)NC(=O)[C@H](Cc2c[nH]cn2)NC(=O)[C@H](CC(=O)O)NC(=O)[C@H](Cc2ccccc2)NC(=O)[C@H](Cc2c[nH]cn2)NC(=O)[C@H](Cc2ccc(O)cc2)NC(=O)CSC[C@@H](C(=O)NCC(N)=O)NC(=O)[C@H](CC(C)C)NC(=O)[C@H](CC(C)C)NC(=O)[C@H](Cc2c[nH]cn2)NC(=O)[C@H](C)NC1=O ({CH2CO}-YHFDHWLAHLLCG-NH2; thioether N-12) | > 30
CC[C@H](C)[C@@H]1NC(=O)[C@H](CC(C)C)NC(=O)[C@H](C)NC(=O)[C@H](CC(C)C)NC(=O)[C@H](Cc2c[nH]c3ccccc23)NC(=O)[C@H](CC(N)=O)NC(=O)[C@H](CC(=O)O)NC(=O)[C@H](Cc2ccccc2)NC(=O)[C@H](Cc2c[nH]cn2)NC(=O)[C@H](Cc2ccc(O)cc2)NC(=O)CSC[C@@H](C(=O)NCC(N)=O)NC(=O)[C@H](CC(C)C)NC1=O ({CH2CO}-YHFDNWLALILCG-NH2; thioether N-12) | > 30
CC(C)C[C@@H]1NC(=O)[C@H](Cc2c[nH]c3ccccc23)NC(=O)[C@H](CC(N)=O)NC(=O)[C@H](CC(=O)O)NC(=O)[C@H](Cc2ccccc2)NC(=O)[C@H](Cc2c[nH]cn2)NC(=O)[C@H](Cc2ccc(O)cc2)NC(=O)CSC[C@@H](C(=O)NCC(N)=O)NC(=O)[C@H](CC(C)C)NC(=O)[C@H](Cc2ccccc2)NC(=O)[C@H](C(C)C)NC(=O)[C@H](CCCNC(=N)N)NC1=O ({CH2CO}-YHFDNWLRVFLCG-NH2; thioether N-12) | > 30
CC(C)C[C@@H]1NC(=O)[C@H](CC(C)C)NC(=O)[C@H](CCCCN)NC(=O)[C@H](CO)NC(=O)[C@H](CC(C)C)NC(=O)[C@H](Cc2c[nH]c3ccccc23)NC(=O)[C@H](CC(N)=O)NC(=O)[C@H](CC(=O)O)NC(=O)[C@H](Cc2ccccc2)NC(=O)[C@H](Cc2c[nH]cn2)NC(=O)[C@H](Cc2ccc(O)cc2)NC(=O)CSC[C@@H](C(=O)NCC(N)=O)NC(=O)[C@H](CC(=O)O)NC1=O ({CH2CO}-YHFDNWLSKLLDCG-NH2; thioether N-13) | > 30
CC(C)C[C@@H]1NC(=O)[C@H](Cc2c[nH]c3ccccc23)NC(=O)[C@H](CO)NC(=O)[C@H](CC(=O)O)NC(=O)[C@H](Cc2ccccc2)NC(=O)[C@H](Cc2c[nH]cn2)NC(=O)[C@H](Cc2ccc(O)cc2)NC(=O)CSC[C@@H](C(=O)NCC(N)=O)NC(=O)[C@H](CCCCN)NC(=O)[C@H](CC(C)C)NC(=O)[C@H](CCCNC(=N)N)NC(=O)[C@H](CCCCN)NC(=O)[C@H](C)NC1=O ({CH2CO}-YHFDSWLAKRLKCG-NH2; thioether N-13) | > 30
CC(C)C[C@@H]1NC(=O)[C@H](C)NC(=O)[C@H]([C@@H](C)O)NC(=O)[C@H](C)NC(=O)[C@H](CC(C)C)NC(=O)[C@H](Cc2c[nH]c3ccccc23)NC(=O)[C@H](CO)NC(=O)[C@H](CC(=O)O)NC(=O)[C@H](Cc2ccccc2)NC(=O)[C@H](Cc2c[nH]cn2)NC(=O)[C@H](Cc2ccc(O)cc2)NC(=O)CSC[C@@H](C(=O)NCC(N)=O)NC(=O)[C@H](CCCNC(=N)N)NC1=O ({CH2CO}-YHFDSWLATALRCG-NH2; thioether N-13) | > 30

The next lines start with the values.

IC50 [µM] | SMILES
0.0049 | CC[C@H](C)[C@@H]1NC(=O)[C@H](Cc2cnc[nH]2)NC(=O)[C@H](Cc2ccc(O)cc2)NC(=O)CSC[C@@H](C(=O)NCC(N)=O)NC(=O)CNC(=O)[C@H](CC(C)C)NC(=O)[C@H](CO)NC(=O)CNC(=O)[C@H](Cc2ccc(O)cc2)NC(=O)[C@H](CC(C)C)NC(=O)[C@H](CO)NC(=O)[C@H](C)NC(=O)[C@H](Cc2ccc(O)cc2)NC(=O)[C@@H](Cc2ccc(O)cc2)NC1=O
0.0029 | CC[C@H](C)[C@@H]1NC(=O)[C@H](Cc2c[nH]cn2)NC(=O)[C@H](Cc2ccc(O)cc2)NC(=O)CSC[C@@H](C(=O)NCC(N)=O)NC(=O)CNC(=O)[C@H](CC(C)C)NC(=O)[C@H]([C@H](C)O)NC(=O)CNC(=O)[C@H](Cc2ccc(O)cc2)NC(=O)[C@H](CC(C)C)NC(=O)[C@H](CO)NC(=O)[C@H](Cc2ccc(O)cc2)NC(=O)[C@H](Cc2ccc(O)cc2)NC(=O)[C@H](Cc2ccc(O)cc2)NC1=O
0.254 | CC(C)C[C@@H]1NC(=O)[C@H](C)NC(=O)[C@H](CCCNC(=N)N)NC(=O)[C@H](Cc2ccc(O)cc2)NC(=O)[C@H](Cc2ccc(O)cc2)NC(=O)[C@H](Cc2c[nH]cn2)NC(=O)[C@H](Cc2c[nH]cn2)NC(=O)[C@H](Cc2ccc(O)cc2)NC(=O)SC[C@@H](C(=O)NCC(N)=O)NC(=O)CNC(=O)[C@H](CC(C)C)NC(=O)[C@H](CCC(=O)O)NC(=O)CNC(=O)[C@H](Cc2ccc(O)cc2)NC1=O (YHHYYRALYGELGCG-NH2; linker N-14 via CO)
0.529 | CC[C@H](C)[C@@H]1NC(=O)[C@H](CCCNC(=N)N)NC(=O)[C@H](Cc2ccc(O)cc2)NC(=O)[C@H](Cc2ccc(O)cc2)NC(=O)C(C)NC(=O)[C@H](Cc2c[nH]cn2)NC(=O)[C@H](Cc2ccc(O)cc2)NC(=O)CSC[C@@H](C(=O)NCC(N)=O)NC(=O)CNC(=O)[C@H](CC(C)C)NC(=O)[C@H](CCC(=O)O)NC(=O)CNC(=O)[C@H](Cc2ccc(O)cc2)NC(=O)[C@H](CC(C)C)NC1=O (single isomer, unassigned)
> 30 | CC[C@H](C)[C@@H]1NC(=O)[C@H](CCCNC(=N)N)NC(=O)[C@H](Cc2ccc(O)cc2)NC(=O)[C@H](Cc2ccc(O)cc2)NC(=O)[C@H](Cc2c[nH]cn2)NC(=O)[C@H](Cc2c[nH]cn2)NC(=O)[C@H](Cc2ccc(O)cc2)NC(=O)CSC[C@@H](C(=O)NCC(N)=O)NC(=O)[C@H](CO)NC(=O)[C@H](CC(C)C)NC(=O)[C@H](CCC(=O)O)NC(=O)CNC(=O)[C@H](Cc2ccc(O)cc2)NC(=O)[C@H](CC(C)C)NC1=O (stereo in doubt)
> 30 | CC[C@H](C)[C@@H]1NC(=O)[C@H](CCCNC(=N)N)NC(=O)[C@H](Cc2ccc(O)cc2)NC(=O)[C@H](Cc2ccc(O)cc2)NC(=O)[C@H](Cc2c[nH]cn2)NC(=O)[C@H](C)NC(=O)[C@H](Cc2ccc(O)cc2)NC(=O)CSC[C@@H](C(=O)NCC(N)=O)NC(=O)CNC(=O)[C@H](CC(C)C)NC(=O)[C@H](CCC(=O)O)NC(=O)CNC(=O)[C@H](Cc2ccc(O)cc2)NC(=O)[C@H](CC(C)C)NC1=O ({CH2CO}-YAHYYRILYGELGCG-NH2; thioether N-14)
> 30 | CC(C)C[C@@H]1NC(=O)[C@H](Cc2c[nH]c3ccccc23)NC(=O)[C@H](Cc2ccccc2)NC(=O)[C@H](CC(N)=O)NC(=O)[C@H](Cc2ccc(O)cc2)NC(=O)[C@H](CO)NC(=O)[C@H](Cc2ccc(O)cc2)NC(=O)[C@H](CCCNC(=N)N)NC(=O)[C@H](CC(C)C)NC(=O)[C@H](CC(=O)O)NC(=O)[C@H](Cc2ccc(O)cc2)NC(=O)CSC[C@@H](C(=O)NCC(N)=O)NC(=O)[C@H](C)NC1=O ({CH2CO}-YDLRYSYNFWLACG-NH2; thioether N-13)
> 30 | CC[C@H](C)[C@@H]1NC(=O)[C@H](Cc2c[nH]c3ccccc23)NC(=O)[C@H](C)NC(=O)[C@H](CC(=O)O)NC(=O)[C@H](Cc2ccccc2)NC(=O)[C@H](Cc2c[nH]cn2)NC(=O)[C@H](Cc2ccc(O)cc2)NC(=O)CSC[C@@H](C(=O)NCC(N)=O)NC(=O)[C@H](CC(C)C)NC(=O)[C@H](CO)NC(=O)[C@H](CCCNC(=N)N)NC(=O)[C@H](C)NC1=O ({CH2CO}-YHFDAWIARSLCG-NH2; thioether N-12)
> 30 | CC[C@H](C)[C@@H]1NC(=O)[C@H](Cc2c[nH]c3ccccc23)NC(=O)[C@H](C)NC(=O)[C@H](CC(=O)O)NC(=O)[C@H](Cc2ccccc2)NC(=O)[C@H](Cc2c[nH]cn2)NC(=O)[C@H](Cc2ccc(O)cc2)NC(=O)CSC[C@@H](C(=O)NCC(N)=O)NC(=O)[C@H](CCC(N)=O)NC(=O)[C@H](CC(C)C)NC(=O)[C@H](CC(C)C)NC(=O)[C@H]([C@@H](C)O)NC(=O)[C@H](C)NC1=O ({CH2CO}-YHFDAWIATLLQCG-NH2; thioether N-13)
> 30 | CC(C)C[C@@H]1NC(=O)[C@H](Cc2c[nH]c3ccccc23)NC(=O)[C@H](C)NC(=O)[C@H](CC(=O)O)NC(=O)[C@H](Cc2ccccc2)NC(=O)[C@H](Cc2c[nH]cn2)NC(=O)[C@H](Cc2ccc(O)cc2)NC(=O)CSC[C@@H](C(=O)NCC(=O)O)NC(=O)[C@H](CC(C)C)NC(=O)[C@H](Cc2ccc(O)cc2)NC(=O)[C@H](CC(=O)O)NC(=O)[C@H](CCCCN)NC1=O ({CH2CO}-YHFDAWLKDYLCG-OH; thioether N-12)
